Experimental findings from publication PMC3064998, “In Vitro Selection of Cathepsin E-Activity-Enhancing Peptide Aptamers at Neutral pH” (International Journal of Peptides, 2011) are described below.

The subject of one experiment is cathepsin E (CatE). The experiment is described as follows: CatE-activity-enhancement assay at neutral pH (fluorogenic substrate). It counts as biochemical, rat. To be noted: pH 7.4; for Activities (%) Asy (CatE activity with chemically synthesized peptide): CatE 20 nM : peptide 1:1; for Activities (%) Asy (CatE activity with chemically synthesized peptide) / Activities (%) Adp (CatE activity with in vitro translated peptide): 50 mM Tris-HCl, 100 mM NaCl, preincubation 25°C 10 min, substrate 5 μM, 37°C 1 h, fluorescence ex 340/em 440 nm, 100% = CatE + substrate without peptide; for Activities (%) Adp (CatE activity with in vitro translated peptide): CatE 20 nM : peptide 1:1 (20 nM), three independent experiments. How it is done:
(§1) A fluorogenic substrate susceptible at neutral pH to the protease cathepsin E, which usually functions at acidic pH, was designed as per reference: [Nma-Gly-Gly-Arg-Arg-Ser-Gly-Thy-Cys-Gly(Dnp)-D-Arg-NH2]. The peptide was custom-synthesized at Peptide Institute (Osaka, Japan) and confirmed to be an effective substrate at pH 7.4. The peptide was dissolved in dimethyl sulfoxide (DMSO) at 10 mM and stored in a deep freezer until use. The enzyme CatE was prepared from rat spleen according to the method previously described and immobilized on N-hydroxysuccinimide-activated sepharose beads (GE Healthcare, USA) using the amine-coupling method and stored in, 100 mM phosphate buffer (pH 7.4) at 4°C.
CatE-activation by peptide aptamers was assayed by the method described previously but with a few modifications. Briefly, the CatE (20 nM) solution preincubated with a peptide aptamer in a 1 : 1 molar ratio in the selection buffer (50 mM Tris-HCl, 100 mM NaCl, pH 7.4) at 25°C for 10 min. was combined with the fluorogenic substrate (5 μM) and the enzyme reaction performed at 37°C for 1 h. The reaction product was measured by fluorescence intensity at 440 nm with an excitation wavelength of 340 nm using a fluorescence microplate reader, Infinite 200 (Tecan, Japan). The percentage of activation (A) was calculated by fitting the data to the following equation:
(1) A=100×Sf−Bf/Cf−Bf [% activation], where Sf represents the fluorescence intensity of the positive reaction consisting of the enzyme (CatE), the fluorogenic substrate, and a possible peptide activator; C f is that of the control reaction mixture consisting of CatE and fluorogenic substrate (without peptide activator); B f is the background fluorescence of the negative reaction mixture consisting of only the fluorogenic substrate.

Another experiment concerns the target T1, cathepsin E (Rattus norvegicus, UniProt P16228).
T1 construct: The enzyme CatE was prepared from rat spleen according to the method previously described; from tissue; host or cells: rat spleen
T1 sequence (P16228 59-398): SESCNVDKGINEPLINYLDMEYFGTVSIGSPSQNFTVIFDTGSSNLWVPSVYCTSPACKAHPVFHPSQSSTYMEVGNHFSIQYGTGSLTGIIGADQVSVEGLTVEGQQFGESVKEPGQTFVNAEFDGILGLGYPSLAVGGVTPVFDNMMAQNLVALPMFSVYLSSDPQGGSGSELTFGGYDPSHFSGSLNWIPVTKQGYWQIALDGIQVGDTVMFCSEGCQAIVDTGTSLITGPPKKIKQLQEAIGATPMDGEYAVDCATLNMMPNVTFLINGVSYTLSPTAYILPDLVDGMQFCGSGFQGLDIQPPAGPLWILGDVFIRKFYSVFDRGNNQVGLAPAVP
Briefly: SPR (Biacore 2000) measurement of KD. To be noted: CatE immobilized on CM5 chip, running buffer 50 mM Tris-HCl, 100 mM NaCl, pH 7.4, four peptide concentrations, 1:1 binding with mass transfer model, unit M printed in b35 only, read-out: KD (dissociation constant). The procedure: as §1
An SPR instrument, Biacore 2000 (GE Healthcare, UK), was used for measuring KD for the binding of cathepsin E and selected peptides. Cathepsin E was immobilized onto Biacore sensor chip CM5 (GE Healthcare, UK) by the amine-coupling method using an Amine Coupling Kit (GE Healthcare, UK). Immobilization of cathepsin E was performed using running buffer (50 mM sodium acetate, 100 mM NaCl, pH 4.5). To determine dissociation constants, four different concentrations of selected peptides were used for the interaction. […] The binding data were analyzed with the 1 : 1 binding with mass transfer model in the BIAevaluation software version 4 : 1 (Biacore).
A general note: SPR reads the build-up and loss of mass on a sensor chip optically.

Experiment [1] deals with T2, P3 (p3006) peptide aptamer.
T2 chain: IEGRVGCDFMYVG
The experiment is described as follows: SPR.

Experiment [2] has as its target T3, S3 (p4038) peptide aptamer.
T3 chain: IGCEERSFPNIIIIIG
Briefly: SPR.

The target of experiment [3] is T4, P1 (p2006) peptide aptamer.
T4 chain: VGCDFMYV
The experiment is described as follows: SPR.

Ends that are not written are not given here.

With PGIKPPPCIIIIG [S2], in the experiment on cathepsin E (CatE), the “Activities (%) Asy (CatE activity with chemically synthesized peptide)” value is reported as 144.5 ± 11% and the “Activities (%) Adp (CatE activity with in vitro translated peptide)” value (“Activities (%) Adp” for short) worked out at 180 ± 10%.
Turning to SPIISHIVGCDPPSCG [S1], the “Activities (%) Adp” value with cathepsin E (CatE) worked out at 160 ± 20%.
By Kd is commonly meant a measure of binding affinity in units of concentration. Regarding IGCEERSFPNIIIIIG [S3], at cathepsin E, the Kd is 0.389 µM.
Regarding IEGRVGCDFMYVG [P3], at cathepsin E, the Kd is 0.334 µM.
Regarding KGPPPCPC [P2], in the experiment on cathepsin E (CatE), the “Activities (%) Asy (CatE activity with chemically synthesized peptide)” value is listed as 110 ± 4% and the “Activities (%) Adp” value was 128 ± 20%. Also, in the experiment on cathepsin E (CatE) (in vitro translation synthesized peptides), the “enhancement of CatE-activity (increase over control)” value is given as 10 to 30%.

B1: Cathepsin E (protein)
chain: T1 sequence (P16228 59-398)
For the molecule B1, the Kd in experiment [1] was 0.334 µM; in experiment [2], 0.389 µM; in experiment [3] it was about 10 µM.
